Source: patent US20230065953A1, “NOVEL HETEROARYL-TRIAZOLE COMPOUNDS AS PESTICIDES” (Bayer Aktiengesellschaft, priority 2019, published 2023)

Columns and labels:
Type in all cases: in vivo
[1] = tested on: adult flies Musca domestica strain WHO-N; experiment: Musca domestica test (MUSCDO surface treatment & contact assay); settings: 24 hours after contact, read-out: efficacy (mortality); for mortality at 4 mg/m2: surface concentration 4 mg/m^2, 30 min exposure; for mortality at 20 mg/m2: surface concentration 20 mg/m^2, 30 min exposure
Outline: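 Compound in acetone at 2 mg/ml with 2000 ppm RME pipetted onto glazed tile; after acetone evaporates, adult WHO-N flies exposed on dried surface for 30 min. Percent mortality scored 24 h after contact.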

[2] = tested on: adult mosquitoes Aedes aegypti strain MONHEIM; experiment: Aedes aegypti test (AEDSAE surface treatment & contact assay); settings: 24 hours after contact, read-out: efficacy (mortality); for mortality at 4 mg/m2: surface concentration 4 mg/m^2, 30 min exposure; for mortality at 20 mg/m2: surface concentration 20 mg/m^2, 30 min exposure
Experimental: Aedes aegypti test (AEDSAE surface treatment & contact assay) • Solvent: Aceton+2000 ppm rapeseed oil methyl ester (RME)
(§1) In order to produce a sufficient, active ingredient containing solution it is necessary to solve the test compound in the solvent-mix (acetone at 2 mg/ml/RME 2000 ppm). This solution is pipetted onto a glazed tile and after evaporation of the acetone, adult mosquitoes of the species Aedes aegypti strain MONHEIM are placed onto the dried surface. The exposure time is 30 minutes.
(§2) Mortality in percent (%) is determined 24 hours after contact of the insects to the treated surface. 100% mortality means that all tested insects are dead, whereas 0% means that no insect died.

[3] = tested on: larvae of the banded cucumber beetle (Diabrotica balteata); experiment: Diabrotica balteata spray test; settings: 168 h, 100 g/ha (=32 μg/well), wheat seeds, after 7 days, read-out: efficacy (seedling growth)
Outline: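 Wheat seeds germinated 1 day on agar were sprayed with compound in acetone/dimethylformamide with alkylarylpolyglycol ether emulsifier, diluted in emulsifier-containing water. Each unit then received 10-20 larvae, and % efficacy was scored after 7 days.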

[4] = tested on: green peach aphid (Myzus persicae); experiment: Myzus persicae spray test; settings: foliar, 120 h, Chinese cabbage leaf disks, after 5 days
Outline: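 Chinese cabbage leaf discs infested with all instars of the aphid were sprayed with compound prepared in acetone/DMF and diluted in water containing 1000 ppm emulsifier. Mortality (%) was scored after 5 days, 100% meaning all aphids killed and 0% none.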

[5] = tested on: fall armyworm larvae (Spodoptera frugiperda); experiment: Spodoptera frugiperda spray test (maize leaf sections); settings: 168 h
Outline: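 Maize leaf sections sprayed with compound in acetone/dimethylformamide, diluted in water with 1000 ppm alkylarylpolyglycol ether emulsifier. Dried sections infested with fall armyworm larvae. Mortality (%) scored after 7 days; 100% = all caterpillars killed.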

[6] = tested on: adult mosquitoes Anopheles funestus strain FUMOZ-R; experiment: Anopheles funestus test (ANPHFU surface treatment & contact assay); settings: 24 hours after contact, read-out: efficacy (mortality); for mortality at 20 mg/m2: surface concentration 20 mg/m^2, 30 min exposure; for mortality at 4 mg/m2: surface concentration 4 mg/m^2, 30 min exposure
Experimental: Anopheles funestus Test (ANPHFU Surface Treatment & Contact Assay) • Solvent: Aceton+2000 ppm rapeseed oil methyl ester (RME)
as §1, with “Anopheles funestus” for “Aedes aegypti”, “FUMOZ-R (Hunt et al., Med. Vet. Entomol. 2005 September; 19(3): 271-275)” for “MONHEIM”
as §2

[7] = tested on: adult unfed cat fleas (Ctenocephalides felis); experiment: Ctenocephalides felis oral test; settings: 48 h
Outline: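 About 20 adult unfed fleas fed through parafilm on cattle blood containing compound (DMSO stock diluted in blood), blood held at 37 °C and fleas at room temperature. Mortality (%) scored after 2 days.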

[8] = tested on: cattle ticks (Rhipicephalus microplus) strain Parkhurst, SP-resistant; experiment: Rhipicephalus (Boophilus) microplus dip test; settings: 100 ppm, egg deposition after 7 days
Experimental: Rhipicephalus (Boophilus) Microplus—Dip Test
Test animal: cattle ticks (Rhipicephalus microplus) strain Parkhurst, SP-resistant
Solvent: dimethyl sulfoxide
To produce a suitable preparation of active compound, 10 mg of active compound are dissolved in 0.5 mL solvent, and the concentrate is diluted with water to the desired concentration.
This compound solution is pipetted into tubes. 8-10 engorged, adult, female cattle ticks (Rhipicephalus microplus) are placed in perforated tubes. These tubes are immersed in the aqueous compound solution until the ticks are completely moistened. After the liquid has drained off, the ticks are transferred to a filter paper in a plastic tray and stored in a climate chamber.
After 7 days egg deposition of fertile eggs is monitored. Eggs where fertility is not visible are stored in a climate chamber till hatching after about 42 days. An efficacy of 100% means all eggs are infertile; 0% means all eggs are fertile.

[9] = tested on: green peach aphid (Myzus persicae); experiment: Myzus persicae oral test; settings: 120 h
Outline: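 Compound was dissolved in acetone, diluted with water and mixed into IPL41 insect medium with sugar under a parafilm seal. A mixed aphid population fed through the parafilm, and mortality (%) was scored after 5 days.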

[10] = tested on: adult brown dog ticks (Rhipicephalus sanguineus); experiment: Rhipicephalus sanguineus in-vitro contact test with adult brown dog ticks; settings: 5 μg/cm^2 (=500 g/ha), after 48 hours, read-out: efficacy (ticks dead or moribund)
Experimental: Rhipicephalus sanguineus—In-Vitro Contact Tests with Adult Brown Dog Ticks
9 mg compound is solved in 1 mL acetone and diluted with acetone to the desired concentration. 250 μL of the test solution is filled in 25 mL glass test tubes and homogeneously distributed on the inner walls by rotation and tilting on a shaking device (2 h at 30 rpm). With a compound concentration of 900 ppm, an inner surface of 44.7 cm^2 and a homogeneous distribution, a dose of 5 μg/cm^2 is achieved.
After the solvent has evaporated, each test tube is filled with 5-10 adult brown dog ticks (Rhipicephalus sanguineus), closed with a perforated lid and incubated in a lying position at room temperature and relative humidity. After 48 hours efficacy is determined. The ticks are patted on the ground of the tubes and are incubated on a heating plate at 45-50° C. for at most 5 minutes. Immotile or uncoordinated moving ticks, which are not able to escape the heat by climbing upwards, are marked as dead or moribund.
An efficacy of 100% means all ticks are dead or moribund; 0% means no ticks are dead or moribund.

[11] = tested on: Rhipicephalus microplus larvae (strain Parkhurst, resistant against synthetic pyrethroids); experiment: Rhipicephalus (Boophilus) microplus in-vitro contact test, larval cattle tick; settings: 5 μg/cm^2 (=500 g/ha), after 48 hours, read-out: efficacy (larvae dead or moribund)
Outline: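 After drying, 20-50 larvae were held per tube at 27° C., 85% relative humidity for 48 h, and efficacy was scored as % dead or moribund.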

[12] = tested on: adult engorged female ticks (Rhipicephalus microplus); experiment: Rhipicephalus (Boophilus) microplus injection test; settings: 168 h, egg deposition after 7 days, read-out: efficacy (infertile eggs); for pest or weed control at 0.004 mg: 4 μg/animal
Outline: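 Five adult engorged female ticks each injected into the abdomen with 1 μL of compound in DMSO, then kept in a climate chamber. Fertile egg deposition assessed after 7 days, with unclear eggs held until hatching around 42 days; efficacy 100% means all eggs infertile, 0% all fertile.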

[13] = tested on: adult cat fleas (Ctenocephalides felis); experiment: Ctenocephalides felis in-vitro contact test, adult cat flea; settings: 5 μg/cm^2 (=500 g/ha), after 48 hours
Outline: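 Acetone solutions of compound were coated onto inner walls of glass tubes (900 ppm giving 5 μg/cm^2) and dried; 5-10 adult C. felis were then held 48 h at room temperature. Efficacy = % fleas dead or moribund, judged by inability to escape a 45-50° C heating plate within 5 min.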

Structure (SMILES)	mortality at 4 mg/m2 [1]	mortality at 20 mg/m2 [1]	mortality at 4 mg/m2 [2]	mortality at 20 mg/m2 [2]	pest or weed control at 32 µg/disc, 100 g/ha [3]	mortality at 100 g/ha [4]	mortality at 100 g/ha [5]	mortality at 20 mg/m2 [6]	mortality at 100 ppm [7]	efficacy (infertile eggs) [8]	mortality at 4 ppm [9]	pest or weed control at 5 µg/cm2, 500 g/ha [10]	pest or weed control at 5 µg/cm2 [11]	pest or weed control at 0.004 mg [12]	efficacy (fleas dead or moribund) [13]	mortality at 4 mg/m2 [6]	pest or weed control at 0.02 mg ([12]; 20 μg/animal)
CC(NC(=O)c1cc(OC(F)(F)F)cc(C2(C#N)CC2)c1)c1ncnn1-c1ncc(C#N)s1 (racemic) [I-87, (rac)-3-(1-cyanocyclopropyl)-N-{1-[1-(5-cyano-1,3-thiazol-2-yl)-1H-1,2,4-triazol-5-yl]ethyl}-5-(trifluoromethoxy)benzamide]	90 to 100%	80 to 100%	80 to 100%	80 to 100%	100%	100%	100%	80 to 100%									
Cc1nc([C@H](C)NC(=O)c2cc(Br)cc(C(F)(F)F)c2)n(-c2ncc(C#N)s2)n1 [I-14]	90 to 100%	80 to 100%		80 to 100%	100%		100%		100%	100%	100%	100%	100%	100%			
CC(NC(=O)c1cc(OC(F)(F)F)cc(C(F)F)c1)c1ncnn1-c1ncc(C#N)s1 (stereo not drawn) [I-26]	90 to 100%	80 to 100%		80 to 100%	100%		100%	80 to 100%	100%		100%		100%	100%	100%		
CC(NC(=O)c1cc(OC(F)F)cc(OC(F)F)c1)c1ncnn1-c1ncc(C#N)s1 (stereo not drawn) [I-31]	90 to 100%	80 to 100%	80 to 100%	80 to 100%	100%	90%	100%		100%		100%	100%	100%	100%		80 to 100%	
C[C@H](NC(=O)c1cc(Cl)cc(S(C)(=O)=O)c1)c1ncnn1-c1ncc(C#N)s1 [I-36]			80 to 100%	80 to 100%	100%		100%		100%		100%		90%	100%	100%	80 to 100%	100%
